Measurements published in patent EP4603105A1, “PHARMACEUTICAL COMPOSITION CONTAINING CYCLIC COMPOUND HAVING SELECTIVE KRAS INHIBITORY EFFECT AGAINST HRAS AND NRAS” (CHUGAI SEIYAKU KABUSHIKI KAISHA, priority 2022, dated 2024).
Like-named read-outs stand apart in the source and are kept apart here.

Experiments:
[1] = biological target: GDP-bound NRAS wild-type protein (Homo sapiens, UniProt P01111); test: Binding to NRAS by surface plasmon resonance (SPR), KD and KD ratio to KRAS
How it was run: (§1)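 Single-cycle kinetics on GDP-loaded biotin-Avi RAS captured to ~100–300 RU; 75 s ascending injections, 100 µL/min, 30°C. HBS pH 7.4 + 10 mM MgCl2/10 µM GDP/4% DMSO. 1:1 fit, KD.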

[2] = biological target: GDP-bound KRAS wild-type protein (Homo sapiens, UniProt P01116); test: Binding to KRAS by surface plasmon resonance (SPR), dissociation constant KD
Chain of GDP-bound KRAS wild-type protein (P01116 1-188 isoform P01116-2): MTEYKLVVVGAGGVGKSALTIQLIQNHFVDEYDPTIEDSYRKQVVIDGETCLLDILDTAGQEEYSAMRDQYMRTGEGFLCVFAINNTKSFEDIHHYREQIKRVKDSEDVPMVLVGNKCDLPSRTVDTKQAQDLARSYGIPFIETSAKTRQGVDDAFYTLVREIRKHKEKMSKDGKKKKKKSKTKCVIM
How it was run: as §1

HRAS wild-type protein = HRAS wild-type protein (Homo sapiens, UniProt P01112); test: Binding to HRAS by surface plasmon resonance (SPR), KD and KD ratio to KRAS
Chain of HRAS wild-type protein (P01112 whole entry): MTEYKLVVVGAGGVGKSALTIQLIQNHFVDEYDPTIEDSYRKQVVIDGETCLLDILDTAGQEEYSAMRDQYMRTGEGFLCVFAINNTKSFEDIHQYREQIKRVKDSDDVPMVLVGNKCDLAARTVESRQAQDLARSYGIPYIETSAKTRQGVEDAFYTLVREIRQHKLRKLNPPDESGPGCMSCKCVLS
How it was run: as §1

[3] = system: human lung cancer strain NCI-H441; test: NCI-H441 cell proliferation inhibitory activity (CellTiter-Glo, 4 days); assay type: cell-based; conditions: read-out: NCl-H441 IC50
How it was run: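 Proliferation was scored by […] measured after the reagent was added to cultures kept at 37°C in 5% carbon dioxide.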

[4] = ratio of KD with respect to GDP-bound NRAS wild-type protein to KD with respect to KRAS
[5] = Single Cycle Kinetics, 1:1 binding model
[6] = ratio of KD with respect to HRAS wild-type protein to KD with respect to KRAS
[7] = 50% proliferation inhibitory concentration, four days
[8] = ratio of KD for GDP-bound NRAS wild-type protein to KD for KRAS
[9] = ratio of KD for HRAS wild-type protein to KD for KRAS

Chain of GDP-bound NRAS wild-type protein (P01111 whole entry): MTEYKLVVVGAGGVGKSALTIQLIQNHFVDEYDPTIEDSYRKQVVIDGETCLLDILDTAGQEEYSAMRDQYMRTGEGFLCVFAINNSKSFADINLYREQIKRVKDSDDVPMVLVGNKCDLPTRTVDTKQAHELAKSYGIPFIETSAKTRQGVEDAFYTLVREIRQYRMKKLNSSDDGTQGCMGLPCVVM

Kd [2, 5]	IC50 [3, 7]	Kd ([2]; Single Cycle Kinetics)	IC50 ([3]; NCI-H441 cells, 4 days)	Kd ([2]; 1:1 binding model)	Compound	NRAS /KRAS [1, 4]	HRAS /KRAS (HRAS wild-type protein; [6])	NRAS /KRAS [1, 8]	HRAS /KRAS (HRAS wild-type protein; [9])
0.45 nM	59.3 nM				CCO[C@@H]1C[C@H]2C(=O)NC3(CCC3)C(=O)N(C)[C@@H](C3CCCC3)C(=O)N(C)[C@H](C(=O)N(C)C)CC(=O)N(C)[C@@H](CC3CC3)C(=O)N[C@@H]([C@@H](C)CC)C(=O)N(C)CC(=O)N(C)[C@H]3C/C=C\CCN(C3=O)[C@@H](Cc3ccc(C)cc3)C(=O)N(C)CC(=O)N[C@@H](CCc3cc(F)c(Cl)c(F)c3)C(=O)N2C1 [PP1484]	A (a compound having 10 or more and less than 20 is denoted as A)	A (a compound having 10 or more and less than 20 is denoted as A)		
		5.4 nM	57.2 nM		CCC(CC)[C@H]1C(=O)N(C)[C@H](C(=O)N(C)C)CC(=O)N(C)[C@@H](CC2CC2)C(=O)N[C@@H]([C@H](C)CC)C(=O)NCC(=O)N(C)[C@H]2C/C=C\CCN(C2=O)[C@@H](Cc2ccc(C(F)F)cc2)C(=O)N(C)CC(=O)N[C@@H](CCc2ccc(Cl)c(C(F)(F)F)c2)C(=O)N2C[C@H](OC(C)C)C[C@H]2C(=O)N(C)C2(CC(C)(C)C2)C(=O)N1C [PP3508]			A (a compound having 10 or more and less than 20 is denoted as A)	A (a compound having 10 or more and less than 20 is denoted as A)
		1.4 nM	55.4 nM		CCO[C@@H]1C[C@H]2C(=O)NC3(CCCC3)C(=O)N(C)[C@@H](C3CCC3)C(=O)N(C)[C@H](C(=O)N(C)C)CC(=O)N(C)[C@@H](CC(C)C)C(=O)N[C@@H]([C@@H](C)CC)C(=O)N(C)CC(=O)N(C)[C@H]3C/C(F)=C\CCN(C3=O)[C@@H](Cc3ccc(C(F)(F)F)cc3)C(=O)N(C)CC(=O)N[C@@H](CCc3cc(F)c(C(F)(F)F)c(F)c3)C(=O)N2C1 [PP3516]			B (a compound having 3 or more and less than 10 is denoted as B)	B (a compound having 3 or more and less than 10 is denoted as B)
		0.21 nM	12.5 nM		C#CC[C@H]1C(=O)N[C@@H]([C@@H](C)CC)C(=O)N(C)CC(=O)N(C)[C@H]2C/C=C\CCN(C2=O)[C@@H](Cc2ccc(C(F)(F)F)cc2)C(=O)N(C)CC(=O)N[C@@H](CCc2ccc(C(F)(F)F)c(OC)c2)C(=O)N2C[C@H](OCC)C[C@H]2C(=O)OC2(CCC2)C(=O)N(C)[C@@H](C2CCCC2)C(=O)N(C)[C@H](C(=O)N(C)C)CC(=O)N1C [PP3373]			A (a compound having 10 or more and less than 20 is denoted as A)	A (a compound having 10 or more and less than 20 is denoted as A)
			374 nM	4.9 nM	CCC[C@H]1C(=O)N[C@@H](CC(C)C)C(=O)N(CCOC)CC(=O)N(C)[C@H]2C/C=C\CCN(C2=O)[C@@H](Cc2ccc(C)cc2)C(=O)N(C)CC(=O)N[C@@H](CCc2cc(F)c(C(F)(F)F)c(F)c2)C(=O)N2C[C@H](OCC)C[C@H]2C(=O)NC2(CCC2)C(=O)N(C)[C@@H](C2CCCC2)C(=O)N(C)[C@H](C(=O)N(C)C)CC(=O)N1C [PP2541]			A (a compound having 10 or more and less than 20 is denoted as A)	B (a compound having 3 or more and less than 10 is denoted as B)
			3.2 nM	0.93 nM	CCCOC[C@H]1C(=O)N[C@@H]([C@@H](C)CC)C(=O)N2CCC[C@H]2C(=O)N(C)[C@H]2C/C=C\CCN(C2=O)[C@@H](CC2CCC(F)(F)CC2)C(=O)N(C)CC(=O)N[C@@H](CCc2ccc(C(F)(F)F)c(OC)c2)C(=O)N2C[C@@H](C)C[C@H]2C(=O)N(C)C2(CCC2)C(=O)N(C)[C@@H](C2CCCC2)C(=O)N(C)[C@H](C(=O)N(C)C)CC(=O)N1C [PP2381]			A (a compound having 10 or more and less than 20 is denoted as A)	A (a compound having 10 or more and less than 20 is denoted as A)
		4 nM	105 nM		CCC[C@H]1C(=O)N[C@@H]([C@@H](C)CC)C(=O)N2CCCCC[C@H]2C(=O)N(C)[C@H]2C/C=C\CCN(C2=O)[C@@H](Cc2ccc(C(F)(F)F)cc2)C(=O)N(C)CC(=O)N[C@@H](CCc2ccc(C(F)(F)F)c(OC)c2)C(=O)N2C[C@H](OCC)C[C@H]2C(=O)N(C)C2(CCC2)C(=O)N(C)[C@@H](C2CCCC2)C(=O)N(C)[C@H](C(=O)N(C)C)CC(=O)N1C [PP3276]			A (a compound having 10 or more and less than 20 is denoted as A)	A (a compound having 10 or more and less than 20 is denoted as A)
		1.2 nM	49.8 nM		C#CC[C@H]1C(=O)N[C@@H]([C@@H](C)CC)C(=O)N2CCCC[C@H]2C(=O)N(C)[C@H]2C/C=C\CCN(C2=O)[C@@H](Cc2ccc(C(F)(F)F)cc2)C(=O)N(C)CC(=O)N[C@@H](CCc2cc(F)c(C(F)(F)F)c(F)c2)C(=O)N2C[C@H](OCC)C[C@H]2C(=O)N(C)C2(CCC2)C(=O)N(C)[C@@H](C2CCCC2)C(=O)N(C)[C@H](C(=O)N(C)C)CC(=O)N1C [PP3259]			A (a compound having 10 or more and less than 20 is denoted as A)	B (a compound having 3 or more and less than 10 is denoted as B)

Further lines, the compound ahead of its results:

Compound	Kd [2, 5]	IC50 [3, 7]	Kd ([2]; Single Cycle Kinetics)	IC50 ([3]; NCI-H441 cells, 4 days)	Kd ([2]; 1:1 binding model)	NRAS /KRAS [1, 4]	HRAS /KRAS (HRAS wild-type protein; [6])	NRAS /KRAS [1, 8]	HRAS /KRAS (HRAS wild-type protein; [9])
CCO[C@@H]1C[C@H]2C(=O)NC3(CCC3)C(=O)N(C)[C@@H](C3CCCC3)C(=O)N(C)[C@H](C(=O)N3CCCC3)CC(=O)N(C)[C@@H](CC3CC3)C(=O)N[C@@H]([C@@H](C)CC)C(=O)N(C)CC(=O)N(C)[C@H]3C/C=C\CCN(C3=O)[C@@H](Cc3ccc(C(F)(F)F)cc3)C(=O)N(C)CC(=O)N[C@@H](CCc3cc(F)c(C(F)(F)F)c(F)c3)C(=O)N2C1 [PP1296]	0.12 nM	14.7 nM				AA (a compound having 20 or more is denoted as AA)	A (a compound having 10 or more and less than 20 is denoted as A)		
CCO[C@@H]1C[C@H]2C(=O)NC3(CCC3)C(=O)N(C)[C@@H](C(CC)CC)C(=O)N(C)[C@H](C(=O)N(C)C)CC(=O)N(C)[C@@H](C)C(=O)N[C@@H]([C@@H](C)CC)C(=O)N(C)CC(=O)N(C)[C@H]3C/C=C\CCN(C3=O)[C@@H](Cc3ccc(C(F)(F)F)cc3)C(=O)N(C)CC(=O)N[C@@H](CCc3ccc4sccc4c3)C(=O)N2C1 [PP1222]	1.2 nM	301 nM				A (a compound having 10 or more and less than 20 is denoted as A)	A (a compound having 10 or more and less than 20 is denoted as A)		
CCO[C@@H]1C[C@H]2C(=O)NC3(CCC3)C(=O)N(C)[C@@H](C3CCCC3)C(=O)N(C)[C@H](C)CC(=O)N(C)[C@@H](CC3CC3)C(=O)N[C@@H]([C@@H](C)CC)C(=O)N(C)CC(=O)N(C)[C@H]3C/C=C\CCN(C3=O)[C@@H](Cc3ccc(C)cc3)C(=O)N(C)CC(=O)N[C@@H](CCc3cc(F)c(C(F)(F)F)c(F)c3)C(=O)N2C1 [PP1410]	0.32 nM	51 nM				B (a compound having 3 or more and less than 10 is denoted as B)	B (a compound having 3 or more and less than 10 is denoted as B)		
CCO[C@@H]1C[C@H]2C(=O)NC3(CCC3)C(=O)N(C)[C@@H](C(CC)CC)C(=O)N(C)[C@H](C(=O)N3CCOCC3)CC(=O)N(C)[C@@H](CC)C(=O)N[C@@H]([C@@H](C)CC)C(=O)N(C)CC(=O)N(C)[C@H]3C/C=C\CCN(C3=O)[C@@H](Cc3ccc(C(F)(F)F)cc3)C(=O)N(C)CC(=O)N[C@@H](CCc3cc(F)c(C(F)(F)F)c(F)c3)C(=O)N2C1 [PP1286]	0.65 nM	58.8 nM				AA (a compound having 20 or more is denoted as AA)	A (a compound having 10 or more and less than 20 is denoted as A)		
CC[C@H](C)[C@@H]1NC(=O)[C@H](CC2CC2)N(C)C(=O)C[C@@H](C)N(C)C(=O)[C@H](C2CCCC2)N(C)C(=O)C2(CCC2)NC(=O)[C@H](CCC(F)F)N(C)C(=O)[C@H](CCc2cc(F)c(C(F)(F)F)c(F)c2)NC(=O)CN(C)C(=O)[C@H](Cc2ccc(C(F)(F)F)cc2)N2CC/C=C\C[C@@H](C2=O)N(C)C(=O)CN(C)C1=O [PP1404]	4.8 nM	498 nM				A (a compound having 10 or more and less than 20 is denoted as A)	A (a compound having 10 or more and less than 20 is denoted as A)		
CCO[C@@H]1C[C@H]2C(=O)NC3(CCC3)C(=O)N(C)[C@@H](C3CCCC3)C(=O)N(C)[C@H](C(=O)N3CCC3)CC(=O)N(C)[C@@H](CC)C(=O)N[C@@H]([C@@H](C)CC)C(=O)N(C)CC(=O)N(C)[C@H]3C/C=C\CCN(C3=O)[C@@H](CC3CCCCC3)C(=O)N(C)CC(=O)N[C@@H](CCc3cc(F)c(C(F)(F)F)c(F)c3)C(=O)N2C1 [PP1445]	0.27 nM	92.8 nM				A (a compound having 10 or more and less than 20 is denoted as A)	A (a compound having 10 or more and less than 20 is denoted as A)		
CCCCCC[C@H]1C(=O)N[C@@H]([C@@H](C)CC)C(=O)N(C)CC(=O)N(C)[C@H]2C/C=C\CCN(C2=O)[C@@H](Cc2ccc(C(F)(F)F)cc2)C(=O)N(C)CC(=O)N[C@@H](CCc2cc(F)c(C(F)(F)F)c(F)c2)C(=O)N2C[C@H](OCC)C[C@H]2C(=O)NC2(CCC2)C(=O)N(C)[C@@H](C2CCCC2)C(=O)N(C)[C@H](C(=O)N(C)C)CC(=O)N1C [PP1242]	0.076 nM	12.8 nM				A (a compound having 10 or more and less than 20 is denoted as A)	A (a compound having 10 or more and less than 20 is denoted as A)		
